Reference: US9879250B2, “Protein-stabilizing agent and protein-stabilizing method” (NOF CORPORATION, priority 2014, dated 2018)

Experiment: Dissolution in phosphate buffer when preparing the protein stabilization solution
Type: physicochemical
Conditions: phosphate buffer (pH 7.4)
Procedure: Two protein stabilizer solutions were prepared by dissolving the compound produced in Synthesis Example 1 in a phosphate buffer (pH 7.4) in such a manner that the final concentrations were controlled at 1.000% by mass (Example 1-1-1) and 0.100% by mass (Example 1-1-2) shown in Table 1 respectively.
Preparation of a protein stabilization solution was tested in the same manner as Example 1-1 except for using the compound produced in Comparative Synthesis Example 1. However, the compound produced in Comparative Synthesis Example 1 was not dissolved in the phosphate buffer, so that the protein stabilization effect could not evaluated.

**Q.** Which “Dissolution in the phosphate buffer” value does the source give for CCCCCCCCCCCCCCCCCCCCSCC(C)C(=O)OCCOP(=O)([O-])OCC[N+](C)(C)C (stereo not shown) [Comparative Synthesis Example 1, 2-[3-(eicosasulfanyl)-2-methylpropionyloxy]ethyl-2-(trimethylammonio)ethyl phosphate] here?
**A.** The value was “not dissolved”.
